{
  "source": "patent US5189016A",
  "about": "“Nutrient compositions containing peptides and method for administering the same” (Clintec Nutrition Co., priority 1990, dated 1993)",
  "key": {"[1]": {"conditions": "cited from earlier work"}, "[2]": {"parameters": "species or system piglets", "conditions": "in vivo", "source_text": "In this experiment slightly preterm, colostrum-deprived piglets were maintained on total parenteral nutrition from birth to day 7 of life. All piglets in this study have been enrolled and completed the study period in the University of Florida Piglet Neonatal Intensive Care Unit. Ten piglets in the control group received standard neonatal piglet total parenteral nutrition solution containing amino acids, glucose, lipid, vitamins and minerals. Eleven piglets in the experimental group received the same total […] nutrition formulation with the exception that 20% of the amino acids in the standard solution was replaced with glutamine. […] Nine piglets in each group completed the full 7 days of the study. One piglet in the control group and two piglets in the experimental group became septic. […] To date, the amino acid analyses have been completed on blood samples from six of the piglets in the experimental group and on blood samples from seven of the piglets in the control group."}},
  "note": "Read-outs that look alike come from different tables or passages of the source. Peptide text beside a SMILES is read from it.",
  "data": [
    {"smiles": "NC(=O)CC[C@H](N)C(=O)O", "note": "[Glutamine, glutamine]", "values": [
      {"measurement": "Solubility in water", "setting": "[1]; 30° C.", "value": 4.8, "unit": "grams/100 mL"}
    ]},
    {"smiles": "NC(=O)C[C@H](N)C(=O)O", "note": "[asparagine]", "values": [
      {"measurement": "Solubility in water", "setting": "[1]; 28° C.", "value": 3.5, "unit": "grams/100 mL"}
    ]},
    {"smiles": "NCC(=O)N[C@@H](CCC(N)=O)C(=O)O", "note": "[glycylglutamine dipeptide, glycyl-glutamine] (H-Gly-Gln-OH)", "values": [
      {"measurement": "Adverse effect in septic piglets", "setting": "[2]", "value": "signs of severe convulsions"},
      {"measurement": "Plasma glutamine concentration, mean", "setting": "[2]", "value": 544, "unit": "nmol/mL"},
      {"measurement": "Plasma glutamine concentrations compared to control group", "setting": "[2]", "value": "increases the plasma glutamine concentrations"}
    ]},
    {"smiles": "N[C@@H](Cc1c[nH]c2ccccc12)C(=O)O", "note": "[tryptophan]", "values": [
      {"measurement": "Solubility in water", "setting": "[1]; 25° C.", "value": 11.4, "unit": "grams/100 mL"}
    ]}
  ]
}
